# In patent US11390617B2, “Methods of treating non-Hodgkin lymphoma using 2-(2,6-dioxopiperidin-3-yl)-4-((2-fluoro-4-((3-morpholinoazetidin-1-yl)methyl)benzyl)amino)isoindoline-1,3-dione” (Celgene Corporation, priority 2019, dated 2022):
# Legend:
# Assay in all cases: NHL cell line viability/apoptosis 384-well flow cytometry assay
# Assay type in all cases: cell-based
# [1] = tested on: DB; details: 120 hours
# Procedure: (§1) The following exemplary anti-proliferative assay uses exemplary non-Hodgkin lymphoma (NIL) cell lines (including diffuse large B-cell lymphoma (DLBCL), follicular lymphoma (FL), and mantle cell lymphoma (MCL)) (Table 5). The in vitro growth inhibitory activity of Compound 1 described herein was evaluated using a 384-well flow cytometry assay.
# (§2) The cell lines in Table 5 were plated in 384-well flat bottom plates and assessed with increasing concentrations of compound ranging from 0.00015 to 10 μM or dimethyl sulfoxide (DMSO) control. The final concentration of DMSO was 0.1% (v/v). Following the addition of Compound 1 or DMSO and incubation for 120 hours, cell number and cell death were analyzed by flow cytometry (Attune®, Thermo Fisher) using Annexin V and the live-cell impermeant DNA dye, DRAQ7. Phosphatidylserine translocates from the inner layer to the outer layer of the cell membrane early in apoptosis and Annexin V binds to the exposed phosphatidylserine found on the surface of an apoptotic cell. The vital dye DRAQ7 is excluded by intact live cells and only stains cells that have died as a result of apoptosis or necrosis.
# (§3) Flow cytometry data analysis was then performed using the Flow Jo_v10 software to determine the number of viable cells (Annexin V and DRAQ7 double negative staining cells) and percentage of apoptotic cells (Annexin V positive cells) for each condition. The live cell count for every concentration was normalized to the DMSO control (considered as 100%) to calculate the percentage of viable cells remaining after treatment and graphed using GraphPad Prism 7.03. The IC50 (50% inhibitory concentration) and Emax (maximum efficacy achieved) values were then calculated by performing nonlinear regression curve fitting using log(inhibitor) vs. normalized response—variable slope analysis on GraphPad Prism 7.03. Area under the curve (AUC) was calculated by performing area under curve analysis on GraphPad Prism 7.03. Similarly, for apoptosis analysis, the percentage of apoptosis combining both “early” (Annexin V positive and DRAQ7 negative) and “late” apoptosis (Annexin V and DRAQ7 positive) cell gates relative to DMSO was graphed using GraphPad Prism 7.03. The AUC, EC50 (concentration of Compound 1 that produces half-maximal apoptosis response) and Ymax (maximal percentage of apoptosis achieved) values from apoptosis curves were calculated by performing area under curve analysis and nonlinear regression curve fitting using log(agonist) vs. normalized response—Variable slope analysis on GraphPad Prism 7.03.
# (§4) In Table 6, dose-response proliferation curves for the panel of NHL cell lines and non-linear curve-fit regression were used to determine IC50, AUC, and Emax for % viable cells (Emax for viability varies between 100 at low doses and 0 at high doses, which corresponds to inhibition of all viable cells), and dose-response apoptosis curves were used to determine the EC50, AUC, and Ymax for % apoptosis (Ymax for apoptosis varies from 0 at low doses and 100 at higher doses which corresponds to death of all cells). Tumor cells were exposed to serial dilutions (0.00015 to 10 μM) of Compound 1 or dimethyl sulfoxide (DMSO) control for 5 days. Viability and apoptosis for all cell lines was determined by Annexin V/[…] flow cytometry.
# [2] = tested on: KARPAS-1106P; details: KARPAS-1106P (DLBCL), 120 hours
# Procedure: as §1, §2, §3, §4
# [3] = tested on: NU-DUL-1; details: NU-DUL-1 (DLBCL), 120 hours
# Procedure: as §1, §2, §3, §4
# [4] = tested on: OCI-LY10; details: OCI-LY10 (DLBCL), 120 hours
# Procedure: as §1, §2, §3, §4
# [5] = tested on: OCI-LY3; details: OCI-LY3 (DLBCL), 120 hours
# Procedure: as §1, §2, §3, §4
# [6] = tested on: RL; details: RL (FL), 120 hours
# Procedure: as §1, §2, §3, §4
# [7] = tested on: Rec-1; details: Rec-1 (MCL), 120 hours
# Procedure: as §1, §2, §3, §4
# [8] = tested on: SU-DHL-4; details: SU-DHL-4 (DLBCL), 120 hours
# Procedure: as §1, §2, §3, §4
# [9] = tested on: SU-DHL-6; details: SU-DHL-6 (DLBCL), 120 hours
# Procedure: as §1, §2, §3, §4
# [10] = tested on: TMD8; details: TMD8 (DLBCL), 120 hours
# Procedure: as §1, §2, §3, §4
# [11] = tested on: Toledo; details: Toledo (DLBCL), 120 hours
# Procedure: as §1, §2, §3, §4
# [12] = tested on: U-2904; details: U-2904 (DLBCL), 120 hours
# Procedure: as §1, §2, §3, §4
# [13] = Homo sapiens, read-out: IC50 (% Viable Cells)
smiles,measurement,setting,value
"O=C1CC[C@H](N2C(=O)c3cccc(NCc4ccc(CN5CC(N6CCOCC6)C5)cc4F)c3C2=O)C(=O)N1 [Compound 1, (S)-2-(2,6-dioxopiperidin-3-yl)-4-((2-fluoro-4-((3-morpholinoazetidin-1-yl)methyl)benzyl)amino)isoindoline-1,3-dione]",AUC (% Viable Cells),[1],941.4
same,AUC (Apoptosis),[1],80.31
same,Emax (% Viable Cells),[1],89.46%
same,Ymax (Apoptosis),[1],11.62%
same,EC50,[1]; Homo sapiens,68.8 nM
same,IC50,[1]; [13],10000 nM
same,EC50,[2]; Homo sapiens,91.8 nM
same,IC50,[2]; [13],17.5 nM
same,AUC (% Viable Cells),[2],22.22
same,AUC (Apoptosis),[2],885.2
same,Emax (% Viable Cells),[2],0.1698%
same,Ymax (Apoptosis),[2],97.08%
same,EC50,[3]; Homo sapiens,63 nM
same,IC50,[3]; [13],35.3 nM
same,AUC (% Viable Cells),[3],22.12
same,AUC (Apoptosis),[3],962.8
same,Emax (% Viable Cells),[3],0.0228%
same,Ymax (Apoptosis),[3],99.84%
same,EC50,[4]; Homo sapiens,320 nM
same,IC50,[4]; [13],14.2 nM
same,AUC (% Viable Cells),[4],125.3
same,AUC (Apoptosis),[4],188.9
same,Emax (% Viable Cells),[4],10.16%
same,Ymax (Apoptosis),[4],22.31%
same,EC50,[5]; Homo sapiens,0.263 nM
same,IC50,[5]; [13],≥ 10000 nM
same,AUC (% Viable Cells),[5],965.1
same,AUC (Apoptosis),[5],24.63
same,Emax (% Viable Cells),[5],85.63%
same,Ymax (Apoptosis),[5],4.493%
same,EC50,[6]; Homo sapiens,157 nM
same,IC50,[6]; [13],8.76 nM
same,AUC (% Viable Cells),[6],234.8
same,AUC (Apoptosis),[6],115.9
same,Emax (% Viable Cells),[6],21.55%
same,Ymax (Apoptosis),[6],13.93%
same,EC50,"[7]; Homo sapiens, Rec1",9.26 nM
same,IC50,"[7]; Homo sapiens, Rec1, read-out: IC50 (% Viable Cells)",32 nM
same,AUC (% Viable Cells),[7],281.8
same,AUC (Apoptosis),[7],508.5
same,Emax (% Viable Cells),[7],21.04%
same,Ymax (Apoptosis),[7],57.27%
same,EC50,[8]; Homo sapiens,782 nM
same,IC50,[8]; [13],278 nM
same,AUC (% Viable Cells),[8],296.2
same,AUC (Apoptosis),[8],209
same,Emax (% Viable Cells),[8],23.44%
same,Ymax (Apoptosis),[8],25.33%
same,EC50,[9]; Homo sapiens,104 nM
same,IC50,[9]; [13],32.5 nM
same,AUC (% Viable Cells),[9],19.94
same,AUC (Apoptosis),[9],920.7
same,Emax (% Viable Cells),[9],0.2469%
same,Ymax (Apoptosis),[9],95.92%
same,EC50,[10]; Homo sapiens,6.17 nM
same,IC50,[10]; [13],2.46 nM
same,AUC (% Viable Cells),[10],4.187
same,AUC (Apoptosis),[10],963.3
same,Emax (% Viable Cells),[10],0.245%
same,Ymax (Apoptosis),[10],97.2%
same,EC50,[11]; Homo sapiens,223 nM
same,IC50,[11]; [13],2 nM
same,AUC (% Viable Cells),[11],112.3
same,AUC (Apoptosis),[11],231.4
same,Emax (% Viable Cells),[11],8.56%
same,Ymax (Apoptosis),[11],27.5%
same,AUC (% Viable Cells),[12],334.1
same,AUC (Apoptosis),[12],456.1
same,EC50,[12],3290 nM
same,Emax (% Viable Cells),[12],7.609%
same,Ymax (Apoptosis),[12],77.39%
same,IC50,[12]; read-out: IC50 (% Viable Cells),201 nM
